From patent US9567326B2, “Pyrimidine compounds for the treatment of cancer” (THE UNIVERSITY OF NORTH CAROLINA AT CHAPEL HILL, priority 2012, dated 2017)

Target: T1, Mer (Homo sapiens, UniProt Q12866)
T1 sequence (Q12866 21-999): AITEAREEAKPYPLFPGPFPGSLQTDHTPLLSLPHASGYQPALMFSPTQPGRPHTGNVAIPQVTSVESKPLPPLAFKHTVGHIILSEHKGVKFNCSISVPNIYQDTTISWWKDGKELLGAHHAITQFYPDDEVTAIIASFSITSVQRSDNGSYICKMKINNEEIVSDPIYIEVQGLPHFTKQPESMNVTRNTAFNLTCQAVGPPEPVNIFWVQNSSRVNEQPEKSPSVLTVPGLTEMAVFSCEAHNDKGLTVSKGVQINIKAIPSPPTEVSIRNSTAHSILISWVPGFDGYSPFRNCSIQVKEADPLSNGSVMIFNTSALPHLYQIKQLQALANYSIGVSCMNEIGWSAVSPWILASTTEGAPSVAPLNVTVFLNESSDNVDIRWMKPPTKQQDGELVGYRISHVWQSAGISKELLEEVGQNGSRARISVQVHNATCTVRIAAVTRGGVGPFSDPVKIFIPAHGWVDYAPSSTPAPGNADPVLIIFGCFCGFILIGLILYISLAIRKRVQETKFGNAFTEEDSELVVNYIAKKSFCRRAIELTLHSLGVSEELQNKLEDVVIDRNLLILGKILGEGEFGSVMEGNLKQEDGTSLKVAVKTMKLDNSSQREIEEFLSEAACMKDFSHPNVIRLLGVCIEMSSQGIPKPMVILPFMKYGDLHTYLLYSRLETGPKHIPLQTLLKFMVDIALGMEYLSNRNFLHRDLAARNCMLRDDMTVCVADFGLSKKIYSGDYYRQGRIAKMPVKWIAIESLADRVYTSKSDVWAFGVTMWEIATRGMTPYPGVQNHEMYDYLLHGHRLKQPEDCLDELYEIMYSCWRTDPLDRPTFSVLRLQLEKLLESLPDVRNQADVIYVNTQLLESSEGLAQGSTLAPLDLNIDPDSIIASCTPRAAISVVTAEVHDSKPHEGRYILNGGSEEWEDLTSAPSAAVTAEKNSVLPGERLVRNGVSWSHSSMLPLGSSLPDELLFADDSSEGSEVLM
Assay: Mer IC50
Type: biochemical

Row | SMILES | IC50 (Table 3 (General Procedure C compounds)) [µM] | IC50 (Table 7 (General Procedure G compounds)) [µM]
1 | CCCCNc1ncc(-c2ccc(C(=O)NC3CCN(C(=O)OC(C)(C)C)CC3)cn2)c(NC2CCC(O)CC2)n1 (centres unmarked) [UNC1898A] | < 0.01 | –
2 | CCCCNc1ncc(-c2cncc(N)n2)c(N[C@H]2CC[C@H](O)CC2)n1 [UNC3118A] | – | < 0.01
